Series [1] is described as follows: Slurry stability in purified water (XRPD). The class given is physicochemical. As to conditions: stirred overnight at room temperature. The method, then:
About 30 mg of Form land Form 5D, Form 6, and Form 8 were mixed with about 2.5 ml of purified water, and the mixtures were stirred for overnight at room temperature. The wet solids were isolated by centrifugation, and further dried in vacuum for 2.5 hours before being analyzed with XRPD.

The nature of series [2]: Dynamic vapor sorption/desorption (DVS). The class given is physicochemical. The note with it: 25° C., 85% RH. The method, then: Moisture sorption/desorption data were collected on a SMS DVS intrinsic Vapor Sorption Analyzer under a nitrogen purge. The DVS experiment generally includes a moisture sorption step and a moisture desorption step. […] In other words, the sample is considered to have reached an equilibrium between moisture sorption and desorption under the relative humidity when dm/dt≤0.01%. The sample was maintained at the temperature of 25° C. with relative humidity varied from 0% to 95%, and back to 0% at an increment of 5% RH each step.

Series [3] in a line: Solubility in water, buffers and bio-relevant media (37° C., 24 h shaking, HPLC). In kind it is physicochemical. The note with it: for Solubility: 37° C., 24 h. The method, then:
The solubility of Form 1, Form 2, Form 5D, Form 6, Form 8, and Form 11 was analyzed in water, 0.1NaqueousHCl, pH4.5 acetate buffer solution, pH6.8 phosphate buffer solution, simulated gastric fluid (SGF), Fasted State Simulated Intestinal Fluid (FaSSIF), and Fed State Simulated Intestinal Fluid (FeSSIF).
About 5 mg or 10 mg of sample was weighed out into each vial and mixed with about 5 ml of medium to form a solution. The target concentration for the potassium salt in water was 2 mg/ml; and the target concentration for all other forms were 1 mg/mL. All samples were kept shaking at 200 rounds per minute (rpm) under 37° C. for 24 hours. The pH value of these samples were determined after shaking for 24 hours. Subsequently, they were centrifuged at the speed of 12000 rpm for 2 mins. The supernatant was diluted with methanol as necessary, and the concentrations were determined by HPLC. When the solubility of potassium salt was tested in water, the supernatant was diluted 100 times, while no other samples were diluted. The HPLC analysis utilizes Agilent Eclipse XDB-C8 4.6*150 mm, 5 μm column at 40° C., a mobile phase of 0.1% TFA: ACN=70:30, an injection volume of 10 μl, a flow rate of 1.0 ml/min, a diluent of methanol, and a detection wavelength of 234 nm.

Series [4] in a line: Suspensions for animal formulation in 0.5% CMC-Na (XRPD). In kind it is physicochemical. As to conditions: about 30 mg in 30 ml, sonication. The method, then:
About 30 mg of Form 1, Form 2, and Form 5D were each added into a respective 40 ml glass bottle and mixed with 30 ml of 0.5% CMC-Na solution. The solids were dispersed uniformly in the solution with the aid of sonication. After that, the solids were isolated by centrifugation, dried at room temperature, and the dry solid analyzed with XRPD.

Series [5] is described as follows: Single-dose pharmacokinetic study, oral and intravenous, in SD rats.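 For AUClast: AUClast in h·ng/mL.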 In kind it is in vivo, SD rat. As to conditions: for AUC(0-inf): read-out: AUCINF—pred; for half-life: read-out: HL_Lambda_z (T1/2) (converted); for Vd/F: read-out: Vz—F—pred. On the procedure:
Form 1, Form 2, and Form 5D were each evaluated via a single-dose pharmacokinetic study following oral and intravenous administration in SD rats. […] Form 1, Form 2, and Form 5Dwere evaluated by rat pharmacokinetics study.
Male SD rat was purchased from Shanghai Sippr B&K Laboratory Animals Co., Ltd. The weight was 180 g˜200 g.
20% HP-β-CD was prepared from dissolving20 g of HP-β-CD (from Sigma) in 100 mL purified water. 0.5% CMC-Na was prepared from dissolving 1 g of CMC-Na (from Aladdin) in 200 mL purified water. The solutions were stored at 2-8 degree.
Group 1:4.95 mg (equivalent to 4.50 mg of anhydrous free base) of Form 1 was weighed out into a 20 ml bottle, and totally dissolved by 0.225 mL DMSO by sonication. After that, 4.275 mL of 20% HP-β-CD was added, mixed well by sonication. Finally, the pH value was adjusted to 7.0 by sodium hydroxide solution. The clear solution was obtained, and the concentration was 1 mg/mL.
Group 2:10.08 mg (equivalent to 9.164 mg of anhydrous free base) of Form 1 was weighed out into a 20 ml bottle, and then 9.164 mL of 0.5% CMC-Na was added. A white suspension was formed after sonicated by ultrasonic cell disruptor, and the concentration was 1 mg/mL.
Group 3:9.47 mg of Form 2 was weighed out into a 20 ml bottle, and then 9.470 mL of 0.5% CMC-Na was added. After sonicated, it was mixed well by homogenizer for 2 minutes. Finally, a white suspension was formed, and the concentration was 1 mg/mL.
Group 4:9.80 mg (equivalent to 8.909 mg of free base) of Form 5Dwas weighed out into a 20 mL bottle, and then 8.909 mL of 0.5% CMC-Na was added. After sonicated, it was mixed well by homogenizer for 2 minutes. Finally, a white suspension was formed, and the concentration was 1 mg/mL.
Group 5:1.94 mg (equivalent to 1.763 mg of anhydrous free base) of Form 1 was weighed out into a 20 ml bottle, and totally dissolved by 0.088 mL DMSO by sonication. After that, 1.675 mL of 20% HP-β-CD was added, mixed well by sonication. Finally, the pH value was adjusted to 7.0 by sodium hydroxide solution. The clear solution was obtained, and the concentration was 0.2 mg/mL.
The dose of intravenous administration was 1 mg/kg and 5 mg/kg, respectively. The oral dose was 10 mg/kg. Animals were fasted overnight before drug administration. After the drug administration, the rats were fed at the 4 hours.
About 150˜200 μL of blood was collected at the initial time (only intravenous), and at 0.25, 0.5, 1, 2, 4, 6, 8 and 24 h by jugular venipuncture blooding method. EDTA-K2 was selected as anticoagulant. Blood samples were centrifuged within one hour at 6000 rpm for 8 minutes (placed on wet ice before centrifugation). The supernatant was stored at −20° C. for LC-MS/MS analysis.
The computer program Microsoft Office Excel 2007 (Microsoft, USA) was used to process data and graphics. The pharmacokinetic parameters were calculated by WinNolin 6.4 software.

The conditions of series [6]: rat, in vivo.
The test system of another series is normal liver cells. As to the kind of experiment: Toxicity to normal liver cells. The class given is cell-based. As to conditions: in comparison with other treatments.
Series [7] can be described thus: Uric acid excretion in mice. In kind it is in vivo. The note with it: in comparison with other treatments.
In the next series the target is T1, URAT1 (Homo sapiens, UniProt Q96S37).
T1 sequence (Q96S37 1-553): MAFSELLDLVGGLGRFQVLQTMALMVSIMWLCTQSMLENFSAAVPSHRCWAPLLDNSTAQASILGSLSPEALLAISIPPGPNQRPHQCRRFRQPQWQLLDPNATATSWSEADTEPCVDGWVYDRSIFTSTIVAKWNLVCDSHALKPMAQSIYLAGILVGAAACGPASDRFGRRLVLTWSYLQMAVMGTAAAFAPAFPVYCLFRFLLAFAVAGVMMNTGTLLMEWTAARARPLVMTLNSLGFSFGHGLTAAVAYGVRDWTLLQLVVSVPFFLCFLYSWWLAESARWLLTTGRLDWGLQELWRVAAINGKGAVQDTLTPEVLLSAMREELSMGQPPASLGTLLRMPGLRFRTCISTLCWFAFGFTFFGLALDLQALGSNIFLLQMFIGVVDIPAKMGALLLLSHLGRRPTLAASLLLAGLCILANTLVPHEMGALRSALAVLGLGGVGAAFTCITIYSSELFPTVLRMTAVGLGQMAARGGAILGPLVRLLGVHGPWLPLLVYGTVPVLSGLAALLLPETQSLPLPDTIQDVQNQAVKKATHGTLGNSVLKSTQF
Nature of the series: Inhibitory effect on URAT1. As to conditions: in comparison with other treatments.

The mark [8] stands for this setting: male SD rats, oral 10 mg/kg, Average (Table 11).
Setting [9] is: male, SD, rat, plasma, po, 10 mg/kg, male SD rats, oral 10 mg/kg, Average (Table 11).
Setting [10] is: male, SD, rat, plasma, po, 10 mg/kg, male SD rats, oral 10 mg/kg, individual rats 401/402/403 (c1/c2/c3).

In brackets after ≈: the same amount, converted by molar mass. Like-named read-outs stand apart in the source and are kept apart here.

The Solubility is the concentration that dissolves in the medium under given conditions. Read a low Solubility as little dissolved substance. Usually Cmax stands for the maximum level reached in the sampled fluid or tissue. The term MRT last denotes the average time that molecules of a dose stay in the body. As usually defined, the Tmax is the time from dosing to the highest level. Broadly, the AUC(0-t) is the area under the concentration-time curve up to a stated or last time point. Lower therefore signals low exposure. In the case of `CCc1nc2ccccn2c1C(=O)c1cc(Br)c(O)c(C#N)c1` [Form 5D, 3-bromo-5-[(2-ethylimidazo[1,2-a]pyridin-3-yl)carbonyl]-2-hydroxybenzonitrile], the “Crystal form after slurry in purified water (XRPD)” value in series [1] is given as “transformed into Form 1”. The “DVS (85% RH)” value in [2] turned out to be 2.14%. The Solubility in series [3] (0.1N HCl) stood at 8.3 µg/mL (≈ 22.4 µM); in [3] (FaSSIF), 55.8 µg/mL (≈ 151 µM); in series [3] (FeSSIF) it was 5.4 µg/mL (≈ 14.6 µM); in series [3] (SGF) it was 7.4 µg/mL (≈ 20 µM); in [3] (Water), 0.8 µg/mL (≈ 2.16 µM); in series [3] (pH 4.5 acetate buffer), 1.3 µg/mL (≈ 3.51 µM). In [3] (pH 6.8 phosphate buffer), this compound returned a Solubility of 47.7 µg/mL (≈ 129 µM). The “Appearance / solubility in water” value in [3] (water, shaken about 24 hours, compared with Form 1) is “reduced solubility in water”. In addition, the “Crystal form after dispersion in 0.5% CMC-Na solution (XRPD)” value in series [4] is “did not change”. Also, the “Exposure and bioavailability (words, comparison)” value in series [5] (SD rats, oral administration 10 mg/kg, 10 mg/kg) was “approximately the same as results from third parties”. This compound also showed an AUClast in [5] (setting [8]) of 91.9148 µg·h/mL. Also, the “Cl—F—pred” value in series [5] (setting [8]) amounted to 0.11 L/h/kg. For the same compound, the F in series [5] (male SD rats, oral 10 mg/kg, calculated by intravenous administration of 1 mg/kg, Average (Table 11)) was 52.96%. The highest concentration (Cmax) worked out at 8.98 µg/mL in series [5] (setting [9]) and 8.54 µg/mL in [5] (setting [10]). Also, the mean residence time (MRT last) in series [5] (setting [9]) is 5.95 h; in series [5] (setting [10]), 6.11 h. Also, the results for the time to peak (Tmax) in series [5] (setting [9]) and in series [5] (setting [10]) were 3.33 h and 4 h, respectively. For the same compound, the AUC(0-inf) in series [5] (setting [9]) amounted to 92.7 µg·h/mL; in series [5] (setting [10]) it was 96.6 µg·h/mL. Further, the half-life in [5] (setting [9]) was 3.4 h; in [5] (setting [10]), 3.55 h. Also, the Vd/F in [5] (setting [9]) and in [5] (setting [10]) was 0.53 L/kg in each case. The area under the curve AUC(0-t) in [5] (setting [10]) turned out to be 84.7 µg·h/mL.
For the compound `CCc1nc2ccccn2c1C(=O)c1cc(Br)c(O)c(C#N)c1` [Compound I, 3-bromo-5-[(2-ethylimidazo[1,2-a]pyridin-3-yl)carbonyl]-2-hydroxybenzonitrile], in series [6], the “Toxicity (oral maximum tolerated dose, acute toxicity test)” value is listed as “much lower than other treatments”. In the series on normal liver cells, the “Toxicity to normal liver cells” value is “reduce the toxicity to normal liver cells”. Moreover, the Uric acid excretion entry in series [7] is “significantly increase uric acid excretion in mice”. Besides, the “Inhibitory effect on URAT1” value on URAT1 is “significantly improve the inhibitory effect on URAT1”.

Values taken from US20250368639A1, “SOLID FORMS OF A COMPOUND FOR TREATING OR PREVENTING HYPERURICEMIA OR GOUT” (ATOM THERAPEUTICS CO., LTD, priority 2022, published 2025).
